# What was measured:
# AtPEPR1 = molecular target: T1, AtPEPR1 (Arabidopsis thaliana, UniProt Q9SSL9); test: Photoaffinity labeling of transgenic tobacco cells expressing AtPEPR1; type: binding; conditions: 50 nM unlabeled competitor, 0.25 nM label
# T1 construct: Tobacco cells were transformed with a CaMV-35S-AtPEPR1 gene; expressed in transfected cells; host or cells: tobacco suspension-cultured cells (Agrobacterium-mediated, CaMV 35S promoter)
# T1 sequence (Q9SSL9 29-1123): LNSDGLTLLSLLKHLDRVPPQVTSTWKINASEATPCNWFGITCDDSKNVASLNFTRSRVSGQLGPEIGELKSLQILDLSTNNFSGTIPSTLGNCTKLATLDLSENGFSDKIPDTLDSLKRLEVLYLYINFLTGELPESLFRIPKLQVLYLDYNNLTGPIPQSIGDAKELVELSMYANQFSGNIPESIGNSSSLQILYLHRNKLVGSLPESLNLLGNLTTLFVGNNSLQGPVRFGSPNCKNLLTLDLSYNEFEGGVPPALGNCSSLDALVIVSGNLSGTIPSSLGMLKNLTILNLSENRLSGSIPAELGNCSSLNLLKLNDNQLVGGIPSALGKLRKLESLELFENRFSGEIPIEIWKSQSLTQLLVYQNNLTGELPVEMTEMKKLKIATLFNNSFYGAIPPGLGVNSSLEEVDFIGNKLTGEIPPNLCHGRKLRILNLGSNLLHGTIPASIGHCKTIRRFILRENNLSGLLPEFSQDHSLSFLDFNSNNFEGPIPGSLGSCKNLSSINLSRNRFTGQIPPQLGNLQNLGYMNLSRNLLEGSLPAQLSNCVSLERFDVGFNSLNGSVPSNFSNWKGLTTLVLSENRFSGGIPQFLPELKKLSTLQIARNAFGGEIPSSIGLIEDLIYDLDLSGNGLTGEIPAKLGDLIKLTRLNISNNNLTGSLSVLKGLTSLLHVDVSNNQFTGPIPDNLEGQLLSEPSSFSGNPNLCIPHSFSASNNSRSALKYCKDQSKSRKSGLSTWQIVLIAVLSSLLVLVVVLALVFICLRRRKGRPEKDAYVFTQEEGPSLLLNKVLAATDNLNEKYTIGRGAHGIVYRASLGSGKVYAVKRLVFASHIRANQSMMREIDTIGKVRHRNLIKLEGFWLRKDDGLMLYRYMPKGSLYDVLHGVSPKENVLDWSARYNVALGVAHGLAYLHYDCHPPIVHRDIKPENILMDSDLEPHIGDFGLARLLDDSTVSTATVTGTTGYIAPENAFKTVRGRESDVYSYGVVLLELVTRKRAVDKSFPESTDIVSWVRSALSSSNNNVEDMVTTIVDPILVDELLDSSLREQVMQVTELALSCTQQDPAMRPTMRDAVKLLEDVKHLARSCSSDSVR
# Protocol: For final confirmation, a photoaffinity-labeling experiment was performed using the transgenic tobacco cells. The transgenic cells were incubated with 0.25 nM ^125I1-azido-Cys-AtPep1 (Yamaguchi et al., Proc. Natl. Acad. Sci. USA 103: 10104-10109, 2006) and irradiated with UV-B to cross-link the AtPep1-binding proteins. After separation of extracted proteins by SDS-PAGE, the labeled proteins were detected on X-ray film. […] Since no specific labeling was detected in wild type tobacco and GUS expressing cells, the proteins labeled specifically by ^125I1-azido-Cys-AtPep1 in AtPEPR1 and AtPEPR2 expressing cells were products from the AtPEPR1 and AtPEPR2 genes.
# [1] = test system: AtPEPR1 and AtPEPR2 transcripts; test: Expression analysis of AtPEPR1 and AtPEPR2 (Northern hybridization, quantitative RT-PCR); type: in vivo, Arabidopsis thaliana; conditions: within 30 min
# Protocol: Expression analysis of AtPEPR1 and AtPEPR2. […] In order to elucidate the role of AtPEPR2 in AtPeps signal transduction, the gene expression patterns were analyzed in comparison with AtPEPR1.
# [2] = test system: AtproPep1, MPK3 and WRKY gene expression; test: Marker gene induction in two-week-old seedlings grown in liquid medium (RT-PCR, qRT-PCR); type: in vivo, Arabidopsis thaliana
# Protocol: Using AtproPep1 and MPK3 as marker genes, the response to AtPep1 of the T-DNA insertional mutants was analyzed. […] […]1 and […]2 mutants are unable to respond to AtPEP1. To further examine the importance of […]1 and […]2 in AtPep1 signaling, the expression level of WRKY transcription factor genes, WRKY22, WRKY29, WRKY33. WRKY53 and WRKY55, were monitored by qRT-PCR after supplying AtPep1 to wild type Arabidopsis and T-DNA insertional mutants of […]1 and […]2. These WRKY genes were reported to be induced by the fungal PAMP, chitin (Wan et al., Plant Cell 20: 471-481, 2008), and the bacterial PAMPs, […] et al., Cell 125:749-760, 2006). […] In the double mutants, […] […] We also examined the effect of supplying AtPep1 to the double mutants on the expression of the antimicrobial protein genes, defensin (PDF1.2) and pathogenesis related protein (PR-1) […] peptides are known to induced these genes (Huffaker and Ryan, Proc. Natl. Acad. Sci. USA 104: 10732-10736, 2007). Since the expression levels of PDF1.2 and PR-1 gene in Arabidopsis seedlings grown in liquid medium were already high, the method of supplying AtPep1 was changed. Four-week-old Arabidopsis plants grown in soil were sprayed with 1 μM AtPep1 in 0.01% Silwet L-77, and subjected to qRT-PCR analysis after 6 hours.
substance,measurement,setting,value
H-ATKVKAKQRGKEKVSSGRPGQHN-OH [AtPep1],labeling of the 170 kDa protein by 125I1-azido-Cys-AtPep1 with competitor,AtPEPR1,not in the cells incubated with 50 nM unlabeled AtPep1
same,induction of AtPEPR1 and AtPEPR2 transcripts,[1],strong inducer
same,"response (AtproPep1, MPK3) in double mutants of AtPEPR1 and AtPEPR2",[2]; 10 nM for 30 min,completely lost the response
same,"response (AtproPep1, MPK3) in AtPEPR2 mutants","[2]; 10 nM for 30 min, SALK_036564 and SALK_004447",did not show the clear reduction
same,reduction of AtproPep1 and MPK3 induction in AtPEPR1 mutants,"[2]; 10 nM for 30 min, SALK_059281 and SALK_014538",> 50%
same,WRKY responses in double mutants pepr1-1/pepr2-1 and pepr1-2/pepr2-2,"[2]; 10 nM, 30 min",completely abolished
same,lower induction of WRKY genes in pepr1-1 and pepr1-2,"[2]; 10 nM, 30 min",50%
same,"induction of WRKY33, WRKY53, WRKY22, WRKY29 and WRKY55","[2]; 10 nM, 30 min, wild type",highly induced

# Source: patent publication US8686224B2, “Plant defense signal peptides” (priority 2005, dated 2014)
